{
  "source": "patent US5633274A",
  "about": "“Cancer treatments” (President and Fellows of Harvard College, priority 1993, dated 1997)",
  "key": {"nonprostate cancer cells": {"tested_on": "nonprostate cancer cells", "assay": "Proliferation of nonprostate cancer cells (general statements)", "assay_type": "cell-based", "details": "for inhibition of (nonprostate cancer) cell proliferation: other channel and transport inhibitors"}, "[1]": {"tested_on": "rat vascular smooth muscle cells", "protocol": "(§4) DNA synthesis assessed by the uptake of [3H]thymidine: Cells are grown in either 48 or 96 wells plates (Costar, Cambridge, Mass.) at 10^4 and 0.8 10^3 cells per well, respectively, and grown in Dubelcco's modified Eagle's medium (DME, Gibco, Grand Island, N.Y.) supplemented with 10% heat-inactivated calf serum; they are kept at 37° C. in 5% CO2. When they reach confluence, usually between 3 and 4 days, the medium is replaced with DME 0.5% serum to make them quiescent, and mitogenesis assays are performed 24 hours later.\n(§5) Quiescent cells are exposed to a mitogenic stimulus, such as 10% serum, PDGF (Sigma Co. St. Louis, Mo.), bFGF (Upstate Biotechnologies, Lake Placid, N.Y.), or other appropriate mitogen according to the cell line, and 3 hours later 1 μCi/ml of [3H]thymidine (Dupont, Billerica, Mass.) is added to the wells, and the cells maintained at 37° C./5% CO2 for additional 21 hours. Then the cells are washed 3 times with DME medium and the acid-precipitable radioactivity is extracted with cold 10% TCA (Sigma, Co). After neutralization with 0.3N NaOH (Sigma Co.), aliquots are counted in a Packard Tri-Carb Scintillation counter (Packard Instrument, Downer's Grove, Ill.).\nCells were stimulated using 5 μM bFGF."}, "[2]": {"tested_on": "Primary human sarcomas rabdomyosarcoma", "assay": "Cell growth of primary human rabdomyosarcoma (surface covered by monolayer)", "assay_type": "cell-based", "details": "10 μM CLT; 48 hours", "procedure": "(§1) Measurement of cell density in culture plates: Cells of a specific test cell line are seeded at precisely the same low density in culture plates and incubated for approximately 12 hours in DME 10% serum, or other culture medium depending on the cell line tested. […] Alternatively, the cells can be detached from the plate by incubation with trypsin (Sigma, Co.) […] in ethylene diaminotetraacetic acid (ECTA; Sigma, Co); then the cells are counted in an hemocytometer chamber (Fisher, Pittsburgh, Pa.).\n(§2) Primary human sarcomas rabdomyosarcoma and liposarcoma: Fresh human cancer specimens were obtained from human subjects undergoing a surgical procedure; the tumors were treated with colagenase to dissociate the cells which were then seeded at low density (1×10^5 in small culture chambers containing hybridomas grade culture medium supplemented with 5% fetal calf serum; after 12 hrs., when the cells were attached to the surface of the culture chambers, CLT (10 μM) or carrier (ethanol) were added *triplicate chambers). After 48 hours cell growth was assessed by optic miscroscopy calculating the surface of the culture flask covered by the cell monolayer."}, "[3]": {"molecular_target": "T1, Ca++ activated K channel of human erythrocytes (Homo sapiens, UniProt O15554)", "T1 construct": "Preparation of Human Red Blood Cells: Blood is collected in heparinized tubes; endogenous in cells; host or cells: washed human erythrocytes (red blood cells) from heparinized blood", "assay": "Inhibition of Ca++ activated K channel of human erythrocytes (86Rb influx, K efflux)", "assay_type": "cell-based", "procedure": "Preparation of Human Red Blood Cells: Blood is collected in heparinized tubes and centrifuged in a Sorvall centrifuge (RB 5B, Du Pont Instruments,Newtown, Conn.) at 5° C. for 10 minutes at 3000 g. Plasma and buffy coat are carefully removed and the cells washed four times with a washing solution containing 150 mM choline chloride (Sigma Co), 1 mM MgC12 (Sigma Co), 10 mM Tris-MOPS (Sigma, Ca), pH 7.4 at 4° C.(CWS). An aliquot of cells is then suspended in an approximately equal volume of CWS, and from this original cell suspension hematocrit (Hct) and hemoglobin (optical density at 540 nm) are determined.\nMethods to Test Inhibitors of the Ca^++ Activated K: To test inhibitors of the Ca^++ activated K channel, the channel is activated using the calcium ionophore A23187 (Chalbiochem).\nBy Atomic Absorption Spectrometry: Washed human erythrocyte are suspended at an hematocrit≈1% in CWS containing 0.150 mM CaCl2 (Sigma Co) Aliquots of 1 ml are removed at 0, 3 and 5 minutes, layered on top of 0.3 ml of the oil n-butyl phthalate (Fair Lane, N.J.) placed in an Eppendorf microtube (Fisher) and then centrifuged in a micro centrifuge for 20 seconds. At time 5.30 minutes, ionophore A23187 (1 μM final concentration) is added and samples removed and spin down through phthalate at times 6, 7, 8 and 9 minutes. The supernatant on top of the oil layer is removed and its K+ concentration is measured by atomic absorption spectrometry using a Perking Elmer model 5000 spectrometer (Perkin Elmer Corp., Norwolk, Conn.). The efflux of K+ (mmol/l cells/h) in the absence and presence of the inhibitor is calculated from the slope of the curves relating the K+ concentration in the supernatants (mmol/l cells) vs. time (min.).\nBy radioisotopic measurement of ^86 Rb influx. The incubation medium is the same but contains 2 mM KCl and 1 μCi/ml of the radioactive tracer ^86 Rb. After spinning the samples through the phthalate layer, the tubes are rapidly frozen (-80° C.) by immersion in methanol-dry ice, the tips of the tubes containing the packed red cells cut, and counted in a Packard Gamma Counter.\nThe inhibitory effect of (CLT) on the Ca^++ activated K channel of human erythrocytes was assessed in the presence of 60 μmol A23187/L cell and 100 μMCaCl2.\nOther antimycotics were tested for their inhibition of the Ca++ activated 86Rb influx human erythrocytes."}, "adenocarcinomas in rats": {"tested_on": "adenocarcinomas in rats", "assay": "Inhibition of tumor growth in vivo (adenocarcinomas in rats)", "parameters": "species or system rat", "procedure": "The efficacy of CLT was studied in inhibiting the growth of adenocarcinomas in rats. […] Tumors were measured by size and weight on a daily basis, and growth rates were calculated. Nonparametric statistical comparisons were made among the median growth rates of all of the treatment groups."}, "[4]": {"tested_on": "primary human sarcoma cells", "assay": "bFGF-stimulated DNA synthesis in primary human sarcoma cells", "assay_type": "cell-based", "details": "for inhibition of DNA synthesis by other inhibitors of the Ca++ activated K channel: toxins, concentration not given", "procedure": "as §2\nOther antimycotics were tested for their inhibition of bFGF-stimulated DNA synthesis in the primary human sarcoma cells of Example 3."}, "[5]": {"tested_on": "rat vascular smooth muscle cells", "assay": "cells", "details": "read-out: inhibition of DNA synthesis", "protocol": "as §4, §5\nCells were stimulated using 5 μM bFGF."}, "[6]": {"tested_on": "Primary human sarcomas liposarcoma", "assay": "Cell growth of primary human liposarcoma (surface covered by monolayer)", "assay_type": "cell-based", "details": "10 μM CLT; 48 hours", "procedure": "as §1, §2"}, "[7]": {"tested_on": "human lung adenocarcinoma cells", "assay": "DNA synthesis ([3H]thymidine incorporation) in human lung adenocarcinoma cells", "assay_type": "cell-based", "details": "FIG. 1", "procedure": "(§3) The inhibitory effect of clotrimazol (CLT) on cell proliferation was assessed in cancerous cells. Quiescent human colon adenocarcinoma and human lung adenocarcinoma cells were stimulated with 5% fetal calf serum and synthesis of DNA was assessed by the incorporation of [3H]thymidine measures 24 hours later. […] The effect was not due to a toxic, non-specific, effect because it was reversed by removing CLT and re-stimulating the cells with 5% fetal calf serum (FIG. 1)."}, "[8]": {"tested_on": "human colon adenocarcinoma cells", "assay": "DNA synthesis ([3H]thymidine incorporation) in human colon adenocarcinoma cells", "assay_type": "cell-based", "details": "FIG. 1", "procedure": "as §3"}, "[9]": {"tested_on": "21- and/or 11-hydroxylase", "details": "background; cited from earlier work"}, "17-20 desmolase": {"tested_on": "17-20 desmolase", "details": "background; cited from earlier work"}, "17-hydroxylase": {"tested_on": "17-hydroxylase", "details": "background; cited from earlier work"}, "[10]": {"tested_on": "testicular and adrenal synthesis of steroid hormones, including testosterone", "details": "cited from earlier work"}, "[11]": {"details": "60 μmol A23187/L cell and 100 μM CaCl2"}, "[12]": {"details": "10 μM CLT, 5% fetal calf serum stimulation, 24 hours"}, "[13]": {"details": "re-stimulated with 5% fetal calf serum"}, "[14]": {"details": "other antimycotics, human erythrocytes, FIG. 4"}},
  "note": "“Also recorded” adds a separate entry of the source. Like-named read-outs stand apart in the source and are kept apart here.",
  "data": [
    {"compound": "N=C(N)NC(=O)c1nc(Cl)c(N)nc1N", "note": "[amiloride]", "values": [
      {"measurement": "inhibition of (nonprostate cancer) cell proliferation", "setting": "nonprostate cancer cells", "result": "do not inhibit cell proliferation"}
    ]},
    {"compound": "Clc1ccccc1C(c1ccccc1)(c1ccccc1)n1ccnc1", "note": "[clotrimazole]", "values": [
      {"measurement": "dose dependence of inhibition of DNA synthesis", "setting": "[1]; 0.001 μM, 0.1 μM, 1 μM and 10 μM", "result": "dose dependent"},
      {"measurement": "inhibition of DNA synthesis", "setting": "[1]; 10 μM, bFGF stimulation", "result": "complete inhibition"},
      {"measurement": "growth of sarcoma cells", "setting": "[2]", "result": "completely arrested"},
      {"measurement": "inhibition of growth", "setting": "[2]", "result": "More than 95%"},
      {"measurement": "inhibition of Ca++ activated 86Rb influx", "setting": "[3]; [11]", "result": "markedly inhibited"},
      {"measurement": "inhibition of K efflux", "setting": "[3]; [11]", "result": "markedly inhibited"},
      {"measurement": "order of inhibitory potency (Ca++ activated 86Rb influx)", "setting": "[3]; human erythrocytes, FIG. 4", "result": "clotrimazole more than miconazole"},
      {"measurement": "median tumor growth rate", "setting": "adenocarcinomas in rats; 100 mg/kg by mouth in peanut oil", "result": "significant reduction"},
      {"measurement": "median tumor growth rate", "setting": "adenocarcinomas in rats; 200 mg/kg by mouth in peanut oil", "result": "significant reduction"},
      {"measurement": "order of inhibitory potency (DNA synthesis)", "setting": "[4]", "result": "CLT more potent than ECZ"},
      {"measurement": "inhibition of bFGF-stimulated DNA synthesis", "setting": "[4]; 10 µM", "result": "inhibited DNA synthesis"},
      {"measurement": "inhibition at 1 µM", "setting": "[5]", "result": 45, "unit": "%"},
      {"measurement": "growth of sarcoma cells", "setting": "[6]", "result": "completely arrested"},
      {"measurement": "inhibition of growth", "setting": "[6]", "result": "More than 95%"},
      {"measurement": "inhibition of DNA synthesis", "setting": "[7]; [12]", "result": "completely inhibited"},
      {"measurement": "reversibility of effect on removing CLT and re-stimulating (not due to a toxic, non-specific effect)", "setting": "[7]; [13]", "result": "reversed"},
      {"measurement": "inhibition of DNA synthesis", "setting": "[8]; [12]", "result": "completely inhibited"},
      {"measurement": "reversibility of effect on removing CLT and re-stimulating (not due to a toxic, non-specific effect)", "setting": "[8]; [13]", "result": "reversed"}
    ]},
    {"compound": "Clc1ccc(COC(Cn2ccnc2)c2ccc(Cl)cc2Cl)cc1", "note": "(stereo not shown) [econazole]", "values": [
      {"measurement": "order of inhibitory potency (Ca++ activated 86Rb influx)", "setting": "[3]; human erythrocytes, FIG. 4", "result": "both of these were more than econazole"},
      {"measurement": "inhibition of bFGF-stimulated DNA synthesis", "setting": "[4]; 10 μM, FIG. 3", "result": "inhibited DNA synthesis"},
      {"measurement": "order of inhibitory potency (DNA synthesis)", "setting": "[4]; 10 μM, FIG. 3", "result": "ECZ more potent than MCZ"}
    ]},
    {"compound": "OC(Cn1cncn1)(Cn1cncn1)c1ccc(F)cc1F", "note": "[fluconazole]", "values": [
      {"measurement": "inhibition of Ca++ activated 86Rb influx", "setting": "[3]; [14]", "result": "no inhibition"}
    ]},
    {"compound": "CC(=O)N1CCN(c2ccc(OCC3COC(Cn4ccnc4)(c4ccc(Cl)cc4Cl)O3)cc2)CC1", "note": "(stereo not shown) [ketoconazole]", "values": [
      {"measurement": "inhibition of 21- and/or 11-hydroxylase", "setting": "[9]", "result": "marked inhibition"},
      {"measurement": "inhibition of growth/proliferation of nonprostate cancer cells", "setting": "nonprostate cancer cells; nonprostate cancer cells tested by the applicants", "result": "ineffective; also recorded: not useful for inhibiting proliferation"},
      {"measurement": "inhibition of 17-20 desmolase", "setting": "17-20 desmolase", "result": "inhibition"},
      {"measurement": "blockade of 17-hydroxylase", "setting": "17-hydroxylase", "result": "partial blockade"},
      {"measurement": "inhibition of testicular and adrenal synthesis of steroid hormones, including testosterone", "setting": "[10]; in high doses", "result": "inhibits testicular and adrenal synthesis of steroid hormones, including testosterone"},
      {"measurement": "plasma testosterone", "setting": "[10]; prostate cancer treatment", "result": "reduces plasma testosterone to castration levels"}
    ]},
    {"compound": "Cc1ncc([N+](=O)[O-])n1CCO", "note": "[metronidazole]", "values": [
      {"measurement": "inhibition of Ca++ activated 86Rb influx", "setting": "[3]; [14]", "result": "only marginal"}
    ]},
    {"compound": "Clc1ccc(COC(Cn2ccnc2)c2ccc(Cl)cc2Cl)c(Cl)c1", "note": "(stereo not shown) [miconazole]", "values": [
      {"measurement": "order of inhibitory potency (Ca++ activated 86Rb influx)", "setting": "[3]; human erythrocytes, FIG. 4", "result": "clotrimazole more than miconazole; and both of these were more than econazole"},
      {"measurement": "inhibition of bFGF-stimulated DNA synthesis", "setting": "[4]; 10 μM, FIG. 3", "result": "inhibited DNA synthesis"},
      {"measurement": "order of inhibitory potency (DNA synthesis)", "setting": "[4]; 10 μM, FIG. 3", "result": "ECZ more potent than MCZ"}
    ]},
    {"compound": "Cc1ncc([N+](=O)[O-])n1CC(O)CCl", "note": "(stereo not shown) [ornidazole]", "values": [
      {"measurement": "inhibition of Ca++ activated 86Rb influx", "setting": "[3]; [14]", "result": "no inhibition"}
    ]},
    {"compound": "C[C@@H]1O[C@@H](O[C@H]2C[C@@H](O)[C@]3(CO)[C@H]4[C@H](O)C[C@]5(C)[C@@H](C6=CC(=O)OC6)CC[C@]5(O)[C@@H]4CC[C@]3(O)C2)[C@H](O)[C@H](O)[C@H]1O", "note": "[ouabain]", "values": [
      {"measurement": "inhibition of (nonprostate cancer) cell proliferation", "setting": "nonprostate cancer cells", "result": "do not inhibit cell proliferation"}
    ]},
    {"compound": "CCS(=O)(=O)CCn1c([N+](=O)[O-])cnc1C", "note": "[tinidazole]", "values": [
      {"measurement": "inhibition of Ca++ activated 86Rb influx", "setting": "[3]; [14]", "result": "no inhibition"}
    ]},
    {"compound": "charybdotoxin", "values": [
      {"measurement": "inhibition of DNA synthesis by other inhibitors of the Ca++ activated K channel", "setting": "[4]", "result": "failed to inhibit DNA synthesis"},
      {"measurement": "inhibition of (nonprostate cancer) cell proliferation", "setting": "nonprostate cancer cells", "result": "do not inhibit proliferation"}
    ]},
    {"compound": "kaliotoxin: specific inhibitor of the Ca++ activated potassium channel", "values": [
      {"measurement": "inhibition of DNA synthesis by other inhibitors of the Ca++ activated K channel", "setting": "[4]", "result": "failed to inhibit DNA synthesis"},
      {"measurement": "inhibition of (nonprostate cancer) cell proliferation", "setting": "nonprostate cancer cells", "result": "do not inhibit proliferation"}
    ]}
  ]
}
